From ChEMBL document CHEMBL1201862, “PubChem BioAssay data set” (2004)
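The compound was tested at five concentrations on cells cultured in 96-well plates, with a 48-hour exposure period. At the GI50, growth is halved.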 Calls of active or inactive are those of the source. Cut-off read from the data, not from the text of the source: active = GI50 up to about 1.1 µM and inactive = higher.

Experiments:
Assay in all cases: growth of human tumour cells (NCI), 48 h
[1] = system: A498
[2] = system: HOP-62
[3] = system: ACHN
[4] = system: OVCAR-3
[5] = system: COLO 205
[6] = system: NCI-H226
[7] = system: U-251
[8] = system: NCI-H23
[9] = system: SR
[10] = system: OVCAR-4
[11] = system: M14
[12] = system: HCT-116
[13] = system: UACC-257
[14] = system: OVCAR-8
[15] = system: SW-620
[16] = system: Malme-3M

Measured: GI50

O=C1/C(=C/c2ccccc2)CCCC/C1=C\c1ccccc1
inactive: [1] > 100 µM | [2] > 100 µM | [3] 78.7 µM | [4] > 100 µM | [5] 39.2 µM | [6] 39.4 µM | [7] 62.2 µM | [8] 45.1 µM | [9] 12.8 µM | [10] 75 µM | [11] > 100 µM | [12] 40.6 µM | [13] 41.2 µM | [14] 75.3 µM | [15] 58.5 µM | [16] 36.2 µM

COC(=O)CC1NC(=O)[C@@H]1C(C)O (some centres not stated)
inactive: [1] > 100 µM | [2] > 100 µM | [3] > 100 µM | [4] > 100 µM | [5] > 100 µM | [6] > 100 µM | [7] > 100 µM | [9] > 100 µM | [10] > 100 µM | [11] > 100 µM | [12] > 100 µM | [13] > 100 µM | [14] > 100 µM | [15] > 100 µM | [16] > 100 µM

COC(=O)c1nn(C(=N)c2ccc(Cl)cc2)c2c1CCC2
inactive: [1] > 100 µM | [2] > 100 µM | [3] > 100 µM | [5] > 100 µM | [6] > 100 µM | [7] > 100 µM | [8] > 100 µM | [9] 14.7 µM | [10] > 100 µM | [11] > 100 µM | [12] > 100 µM | [13] > 100 µM | [14] > 100 µM | [15] > 100 µM | [16] > 100 µM

COC1C=COC2(C)Oc3c(C)c(O)c4c(O)c(c(/C=N/N5CCN(N)CC5)c(O)c4c3C2=O)NC(=O)C(C)=CC=CC(C)C(O)C(C)C(O)C(C)C(OC(C)=O)C1C (configuration not stated)
inactive: [1] > 100 µM | [2] > 100 µM | [3] > 100 µM | [5] 37.8 µM | [6] > 100 µM | [7] > 100 µM | [8] 31.9 µM | [9] 34.1 µM | [10] 70.5 µM | [11] > 100 µM | [12] 30.7 µM | [13] > 100 µM | [14] 88.3 µM | [15] 48 µM | [16] > 100 µM

OCC(O)COc1c(Cl)cc(Cl)cc1Cl (configuration not stated)
inactive: [1] > 100 µM | [2] > 100 µM | [3] > 100 µM | [4] > 100 µM | [5] > 68.7 µM | [6] > 100 µM | [7] > 100 µM | [8] > 57.4 µM | [9] 61.7 µM | [10] > 100 µM | [11] > 100 µM | [12] > 74.3 µM | [13] > 100 µM | [14] > 100 µM | [15] > 34 µM | [16] > 100 µM

CN(C)C(=S)/N=c1\ss/c(=N\C(=S)N(C)C)n1-c1ccc2c(c1)OCO2
inactive: [1] > 100 µM | [2] > 100 µM | [3] > 100 µM | [4] > 100 µM | [6] > 100 µM | [7] > 100 µM | [8] > 100 µM | [9] > 100 µM | [10] 4.19 µM | [11] > 100 µM | [12] > 100 µM | [13] > 100 µM | [14] > 100 µM | [15] > 100 µM | [16] > 100 µM

CC1(C)COC(c2ccc(C(F)(F)F)cc2C(O)c2ccc3ccccc3c2)=N1 (configuration not stated)
inactive: [1] > 10 µM | [2] > 10 µM | [3] > 10 µM | [4] > 10 µM | [5] > 10 µM | [6] 51.3 µM | [7] > 10 µM | [8] 28.9 µM | [9] > 10 µM | [10] > 10 µM | [11] > 10 µM | [12] > 10 µM | [13] > 10 µM | [14] > 10 µM | [15] > 10 µM | [16] > 10 µM

CC(C)(C)C(=O)/C=C/c1cccc(Oc2ccccc2)c1
inactive: [1] 20 µM | [2] 45 µM | [3] 15.2 µM | [6] 18.2 µM | [7] 11.3 µM | [8] > 10 µM | [9] 4.2 µM | [11] 18.6 µM | [12] 10.5 µM | [13] 14 µM | [14] 13.6 µM | [15] > 10 µM | [16] 18.8 µM

COc1ccc(/C=C2\CCC(CCN(C)C)(C3=CCCC3)C2=O)cc1 (configuration not stated)
inactive: [1] 17.7 µM | [2] 18 µM | [3] 16.9 µM | [4] 19.1 µM | [5] 12.8 µM | [6] 20.6 µM | [7] 16.5 µM | [8] 29 µM | [9] 27.2 µM | [10] 19.7 µM | [11] 15.1 µM | [12] 15.1 µM | [13] 16.9 µM | [14] 16.8 µM | [15] 16.8 µM | [16] 16 µM
